Results taken from patent US20250127907A1, “PARP INHIBITORS” (Stablix, Inc., priority 2023, published 2025).

Tests used:
PARP1 [1] = molecular target: T1, PARP1 (Homo sapiens, UniProt P09874); experiment: PARP1-enzyme assay (NAD/NADH-Glo biochemical assay); settings: recombinant PARP1, NAD+ consumption
Description: The PARP enzyme catalyzes the transfer of ADP-Ribose from NAD+ onto PAR chains/histone substrates. The catalytic cycle is monitored indirectly with the NAD/NADH-Glo Assay kit from Promega. […] NAD+ consumed is determined by comparison to the no enzyme control.
• Recombinant PARP1 • NAD+/NAHD-Glow assay Kit • Activated DNA, 10 μg/mL • NAD+(Nicotinamide Adenine Dinucleotide), 500 nM • Protein substrate for PARP1: Core Histone from chicken, 10 μg/mL
The letter codes for the PARP1-enzyme assay include: A (<1 nM), B (>1-10 nM), C (>10-100 nM), D (>100-1000 nM), E (>1000 nM), and “-” is not tested. The letter codes for the PARP trapping assay, and parylation assay include: A (<10 nM), B (>10-100 nM), C (>100-1000 nM), […], E (>10000 nM), and “-” is not tested.
Target sequence in this assay (P09874 whole entry, species assumed): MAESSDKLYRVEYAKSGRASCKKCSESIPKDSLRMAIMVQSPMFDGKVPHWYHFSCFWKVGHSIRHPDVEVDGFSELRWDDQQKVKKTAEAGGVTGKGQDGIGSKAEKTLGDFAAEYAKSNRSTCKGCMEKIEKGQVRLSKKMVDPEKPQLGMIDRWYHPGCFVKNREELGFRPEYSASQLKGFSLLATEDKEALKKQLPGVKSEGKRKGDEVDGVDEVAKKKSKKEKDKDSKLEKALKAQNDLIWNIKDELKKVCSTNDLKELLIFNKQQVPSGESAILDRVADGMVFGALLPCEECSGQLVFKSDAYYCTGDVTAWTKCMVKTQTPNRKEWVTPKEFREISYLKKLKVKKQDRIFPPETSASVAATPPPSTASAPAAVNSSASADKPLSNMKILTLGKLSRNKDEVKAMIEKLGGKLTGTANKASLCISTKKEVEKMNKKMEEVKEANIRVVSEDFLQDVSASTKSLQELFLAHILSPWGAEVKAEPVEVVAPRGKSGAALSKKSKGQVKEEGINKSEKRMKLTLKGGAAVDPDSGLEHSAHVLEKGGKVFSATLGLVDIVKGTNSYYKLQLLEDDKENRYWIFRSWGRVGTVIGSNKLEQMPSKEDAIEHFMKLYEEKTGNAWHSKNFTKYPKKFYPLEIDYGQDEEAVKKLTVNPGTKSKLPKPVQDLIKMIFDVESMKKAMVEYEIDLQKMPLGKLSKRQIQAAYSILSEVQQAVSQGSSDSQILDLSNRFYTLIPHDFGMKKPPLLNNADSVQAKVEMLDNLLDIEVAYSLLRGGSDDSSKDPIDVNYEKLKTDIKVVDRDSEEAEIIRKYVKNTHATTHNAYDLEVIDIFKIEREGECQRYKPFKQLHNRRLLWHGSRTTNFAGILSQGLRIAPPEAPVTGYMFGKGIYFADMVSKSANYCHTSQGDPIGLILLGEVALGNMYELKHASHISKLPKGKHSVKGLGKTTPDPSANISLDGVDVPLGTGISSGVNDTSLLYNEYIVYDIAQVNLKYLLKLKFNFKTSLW

[2] = tested on: Poly/Mono-ADP Ribose in U2OS cells; experiment: PAR in cell western assay (parylation) in U2OS cells; type: cell-based; settings: Homo sapiens; U2OS cells, 6 hrs, 2 mM H2O2; read-out: Parylation (U2OS)
Summary of the method: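 U2OS cells treated with compound for 6 h, then 2 mM H2O2 for 10 min to induce DNA damage. After methanol fixation, cells stained overnight at 4 °C with anti-mono/poly-ADP-ribose antibody and imaged by infrared in-cell western, normalized to CellTag 700; reported as % control inhibition.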

A2780 cells = experiment: Cell proliferation assay (A2780); type: cell-based; settings: Homo sapiens, 168 h, 7 days
HCC1806 cells = experiment: Cell proliferation assay (HCC1806); type: cell-based; settings: Homo sapiens, 168 h, 7 days
MDA-MB-436 cells = experiment: Cell proliferation assay (MDA-MB-436); type: cell-based; settings: Homo sapiens, 168 h, 7 days
PARP1 [3] = molecular target: T1, PARP1; experiment: PARP trapping assay in U2OS cells; type: cell-based; design: endogenous in cells; host or cells: U2OS; settings: U2OS cells, MMS, 4 hrs; read-out: PARP Trapping (U2OS)
Summary of the method: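 U2OS cells co-treated with compounds and MMS for 4 h, then soluble proteins extracted with 0.5% Triton X-100, MeOH-fixed and immunostained for PARP1. Chromatin-bound PARP1 quantified as AF488 intensity per DAPI-segmented nucleus; potencies reported as letter-code bins.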
Target sequence in this assay (P09874 whole entry): as the sequence (P09874 whole entry, species assumed) above

| IC50 (PARP1 [1]) [nM] | IC50 [2] [nM] | IC50 (A2780 cells) [nM] | IC50 (HCC1806 cells) [nM] | IC50 (MDA-MB-436 cells) [nM] | IC50 (PARP1 [3]) [nM] | Compound |
| --- | --- | --- | --- | --- | --- | --- |
| < 1 | 100 to 1000 | 10 to 100 | 100 to 1000 | 100 to 1000 | 100 to 1000 | CCc1cccc(-c2cnc(C(=O)NCCOCCNCC(=O)N3CCN(C(=O)c4cc(Cc5n[nH]c(=O)c6ccccc56)ccc4F)CC3)c(NC(=O)CNCc3cccc(C)c3)c2)c1 [Compound I-63] |
| < 1 | 100 to 1000 | 100 to 1000 | 100 to 1000 | 100 to 1000 | 100 to 1000 | CCc1cccc(-c2cnc(C(=O)N3CCC(CN4CCN(CC(=O)N5CCN(C(=O)c6cc(Cc7n[nH]c(=O)c8ccccc78)ccc6F)CC5)CC4)CC3)c(NC(C)=O)c2)c1 [Compound I-367] |
| < 1 | 10 to 100 | 10 to 100 | 10 to 100 | < 10 | 10 to 100 | CC(C)(C)OC(=O)N[C@@H](C(=O)N1CCC(OC2CCN(CC(=O)N3CCN(C(=O)c4cc(Cc5n[nH]c(=O)c6ccccc56)ccc4F)CC3)CC2)CC1)C1CCCCC1 [Compound I-787] |
